{"source": "patent US20230357354A1", "about": "“CD38-BINDING CD31 PEPTIDES AND USES THEREOF” (ENCEFA, priority 2020, published 2023)", "key": {"6-OHDA mouse model": {"system": "6-OHDA mouse model", "test": "6-OHDA mouse model, number of DA (TH+) neurons in the substantia nigra pars compacta", "format": "in vivo, mice", "details": "15 mg/kg iv one day before 6-OHDA icv injection", "method": "Animals were treated in accordance with the Guide for the Care and Use of Laboratory Animals (National Research Council, 1996), with the European Directive 2010/63/EU, and the guidelines of the local institutional animal care and use committee. For all studies, 8 to 10 weeks-old male C57B1/6 mice (Janvier, France) were used. They were maintained on a 12:12 hours light/dark cycle with lights on at 8 a.m. The room temperature was kept at 20° C., with free access to standard diet and tap water.\nTwo in vivo mouse models were used: the 6-OHDA mouse model and the MPTP mouse model. For the 6-OHDA mouse model, the intoxication protocol was based on the unilateral stereotaxic intrastriatal injection of 6-OHDA in the right striatum. Intracerebral or intravenous injections of treatments were made either the day before the surgical stereotaxic procedure, concomitantly with 6-OHDA during the surgical stereotaxic procedure, or two days after 6-OHDA injection. Animals were sacrificed 8 days after the surgical stereotaxic procedure.\nFor unilateral 6-OHDA mouse model, animals were anesthetized using Chloral hydrate (400 mg/kg, i.p.) and placed into a stereotactic frame adapted to mice. The injection was performed using a Hamilton syringe at the following coordinates: AP: + […] (corresponding to the atlas of Franklin and Paxinos, 1997). […]"}, "[1]": {"system": "dopaminergic (TH^+) neurons in midbrain cultures", "test": "MPP+ intoxication model: DA (TH+) cell survival in midbrain cultures", "format": "cell-based, Wistar rat", "details": "MPP^+ in vitro model; antibodies 1 µg/mL, genistein 10 nM, vacuolin-1 10 µM, endosidin2 40 µM", "method": "Animals were treated in accordance with the Guide for the Care and Use of Laboratory Animals (National Research Council, 1996), European Directive 86/609, and the guidelines of the local institutional animal care and use committee. Cultures were prepared from the ventral mesencephalon of gestational age 15.5 Wistar rat embryos (Janvier Breeding Center, Le Genest St Isle, France). Dissociated cells in suspension obtained by mechanical trituration of midbrain tissue pieces were seeded at a density of 1.2-1.5×10^5 cells/cm^2 onto tissue culture supports precoated with 1 mg/mL polyethylenimine diluted in borate buffer pH 8.3 as described (Michel et al., 1997. J Neurochem. 69(4):1499-507). The cultures were then maintained in N5 medium supplemented with 5 mM glucose, 5 % horse serum, and 0.5 % fetal calf serum, except for the first 3 DIV, when the concentration of fetal calf serum was 2.5% to favor initial maturation of the cultures (Guerreiro et al., 2008. Mol Pharmacol. 74(4):980-9). They were fed daily by replacing 70% of the medium. Routinely, mesencephalic cultures were established on Nunc 24-well culture plates (Thermofischer Scientific, Rochester, NY). Note that these cultures contain tyrosine hydroxylase (TH)^+ neurons that were exclusively dopaminergic (Traver et al., 2006. Mol Pharmacol. 70(1):30-40). TH^+ neurons represented approximately 1-2% of the total number of neuronal cells present in these cultures. The evaluation of the survival of DA neurons was performed by counting cells immunopositive for TH as described (Toulorge et al., 2011. Faseb J. 25(8):2563-73).\nTreatments with MPP^+ were performed in cultures where the spontaneous death process was prevented by long-term exposure to depolarizing concentrations of K^+ (30 mM), in the presence of the glutamate receptor antagonist MK801 (5 µM) to prevent unwanted excitotoxic insults as described previously (Douhou et al., 2001. J Neurochem. 78(1):163-74). Treatments with MPP^+ and potential neuroprotective molecules were carried out between 5 and 7 DIV.\nThe cultures were fixed for 12 min using 4 % formaldehyde in Dulbecco’s phosphate-buffered saline (PBS), then washed twice with PBS before an incubation step at 4° C. for 24 hours with the following antibodies. A monoclonal anti-TH antibody diluted 1/5000 (ImmunoStar, Inc., Hudson, WI) was used to assess the survival of DA neurons. Antibody was diluted in PBS containing 0.2 % Triton X-100. Detection of the primary antibodies was performed with an Alexa Fluor-488 conjugate of an anti-mouse IgG antibody.\nFor this purpose, spontaneously occurring DA cell death was prevented by a treatment combining depolarizing concentrations of K^+ (30 mM) and MK801 (5 µM), a glutamate receptor antagonist used to prevent unwanted excitotoxic insult. The cultures were then exposed to 3 µM MPP^+ between 5 and 7 days in vitro (DIV) to achieve a loss of approximately 50% of DA neurons."}, "human Daudi cells [2]": {"system": "human Daudi cells", "format": "cell-based"}, "DSS mouse model": {"system": "DSS mouse model", "test": "DSS-induced colitis mouse model, colon length", "format": "in vivo, mice", "method": "Experimental colitis was induced in mice by giving drinking water ad libitum containing 3 % (w/v) DSS for 5 days, while control mice received tap water only. Test compounds were intravenously administered (15 mg/kg) when DSS treatment began. Mice were sacrificed 9 days after the beginning of DSS treatment.\nAdministration of DSS causes human ulcerative colitis-like pathologies due to its toxicity to colonic epithelial cells, which results in compromised mucosal barrier function. Clinical observations similar to human pathologies, such as weight loss, diarrhea and occult blood in stool, are commonly observed in the DSS model. Moreover, diminution of the colon’s length is characteristic of this model.\nExperimental colitis was induced in mice by giving drinking water ad libitum containing 3% (w/v) DSS for 5 days, while control mice received tap water only. Test compounds (SEQ ID NO: 6 and SEQ ID NO: 10) were subcutaneously administered everyday (300 µg/kg) starting when DSS treatment began. Mice were sacrificed 9 days after the beginning of DSS treatment."}, "human Daudi cells [3]": {"system": "human Daudi cells", "format": "cell-based", "details": "for glucose uptake (2-NBDG fluorescence): glucose-deprived cells, 1 hour treatment (1 µM per figure legends; 10 µg/mL per method), 2-NBDG 500 µM 30 minutes; for effect of the C-terminal deletion or alanine substitution (relative to the parent peptide) on glucose uptake: parent SEQ ID NO: 6 (deletions) or SEQ ID NO: 8 (alanine scanning), 2-NBDG fluorescence", "method": "Human Daudi cells cultured in 75 cm^2 flask were centrifuged ( 300 g, 3 minutes), resuspended in warmed PBS supplemented with 10 % goat serum and seeded in 96-well microplate ( 100 µL, 2 × 10^6 cells/mL) in order to deprive cells from glucose. Cells were treated with test treatments (10 µg/mL) for 1 hour (37° C.). Cells were then incubated with 500 µM of the fluorescent and non-metabolizable glucose analog 2-NBDG ((2R,3R,4S,5R)-3,4,5,6-tetrahydroxy-2-[(7-nitro-2,1,3-benzoxadiazol-4-yl)amino]hexanal; Thermo Fischer) for 30 minutes at 37° C., and washed 4 times with PBS containing 10 % of goat serum. Images were acquired using a Zeiss microscope (20 X) and the relative fluorescence intensity of 30 cells was determined using Fiji.\nTo determine the effect of test compounds on glucose uptake, we developed a cellular model based on the use of human Daudi cells, a cell line known to strongly express CD38.\nHuman Daudi cells were plated in culture medium deprived of glucose and exposed to test treatments (peptides of Table 6) for 1 hour and then incubated with the non-metabolizable, fluorescent glucose 2-NBDG. After 30 minutes of incubation, cells were washed and imaged using a microscope. Fluorescence levels were determined using Fiji."}}, "note": "Read-outs that look alike come from different tables or passages of the source. Bridge positions count the residues as written; N and C are the ends. Ends that are not written are not given here. Peptide text beside a SMILES is read from it.", "data": [{"compound": "Daratumumab", "values": [{"measurement": "neuroprotective effect on DA neurons", "setting": "6-OHDA mouse model", "result": "failed to demonstrate neuroprotective activity"}]}, {"compound": "O=c1c(-c2ccc(O)cc2)coc2cc(O)cc(O)c12", "note": "[genistein]", "values": [{"measurement": "effect on the neuroprotective effect of agonistic anti-CD38 antibody clone HB7 (1 µg/mL)", "setting": "[1]", "result": "antagonized"}, {"measurement": "effect on the neuroprotective effect of sCD31 (1 µg/mL)", "setting": "[1]", "result": "antagonized"}]}, {"compound": "CC[C@H](C)[C@@H]1NC(=O)[C@H](C(C)C)NC(=O)[C@H](Cc2ccccc2)NC(=O)[C@H](CC(N)=O)NC(=O)[C@H](CCC(N)=O)NC(=O)[C@H](CC(=O)O)NC(=O)[C@H](CCCNC(=N)N)NC(=O)[C@@H](N)CSSC[C@@H](C(=O)O)NC(=O)[C@H](CCC(N)=O)NC(=O)[C@H](CCC(=O)O)NC(=O)[C@H](CCC(=O)O)NC(=O)[C@H](C(C)C)NC(=O)[C@@H]2CCCN2C(=O)[C@H](Cc2ccccc2)NC(=O)[C@H](CCC(=O)O)NC(=O)[C@H](CC(C)C)NC1=O", "note": "[SEQ ID NO: 9] (H-CRDQNFVILEFPVEEQC-OH; disulfide 1-17 (inferred); N-terminus and C-terminus assumed)", "values": [{"measurement": "EC50", "setting": "human Daudi cells [2]; 1 h", "result": "~0.1", "unit": "nM"}]}, {"compound": "NSRDQNFVILEFPVE [SEQ ID NO: 6]", "values": [{"measurement": "EC50", "setting": "human Daudi cells [2]; 1 h", "result": "~13", "unit": "nM"}, {"measurement": "colon length", "setting": "DSS mouse model; 300 µg/kg s.c. daily from start of DSS, 3% DSS 5 days, sacrifice day 9", "result": "statistically significant improvement in colon length"}, {"measurement": "potency on colon length compared with SEQ ID NO: 10", "setting": "DSS mouse model; same dosing regimen, 300 µg/kg s.c. daily", "result": "less potent than SEQ ID NO: 10"}]}, {"compound": "COc1cc(/C=N/NC(=O)c2cccc(F)c2)cc(I)c1O", "note": "[endosidin2]", "values": [{"measurement": "effect on the neuroprotective effect of agonistic anti-CD38 antibody clone HB7 (1 µg/mL)", "setting": "[1]", "result": "antagonized"}, {"measurement": "effect on the neuroprotective effect of sCD31 (1 µg/mL)", "setting": "[1]", "result": "antagonized"}]}, {"compound": "NFVDLEFP [SEQ ID NO: 315]", "values": [{"measurement": "glucose uptake (2-NBDG fluorescence)", "setting": "human Daudi cells [3]", "result": "impact the glucose uptake-increasing activity of the peptide"}]}, {"compound": "NFVFLEFP [SEQ ID NO: 311]", "values": [{"measurement": "glucose uptake (2-NBDG fluorescence)", "setting": "human Daudi cells [3]", "result": "still active"}]}, {"compound": "NFVILAFP [SEQ ID NO: 298]", "values": [{"measurement": "effect of the C-terminal deletion or alanine substitution (relative to the parent peptide) on glucose uptake", "setting": "human Daudi cells [3]", "result": "had no effect on glucose uptake"}]}, {"compound": "Ic1cccc(/C=N/Nc2nc(N3CCOCC3)nc(N(c3ccccc3)c3ccccc3)n2)c1", "note": "[vacuolin-1]", "values": [{"measurement": "effect on the neuroprotective effect of agonistic anti-CD38 antibody clone HB7 (1 µg/mL)", "setting": "[1]", "result": "antagonized"}, {"measurement": "effect on the neuroprotective effect of sCD31 (1 µg/mL)", "setting": "[1]", "result": "antagonized"}]}, {"compound": "NWVILEFP [SEQ ID NO: 306]", "values": [{"measurement": "glucose uptake (2-NBDG fluorescence)", "setting": "human Daudi cells [3]", "result": "still increase glucose uptake"}]}, {"compound": "human sCD31: soluble form of human CD31, amino acid residues 35 to 493 of SEQ ID NO: 1", "values": [{"measurement": "EC50", "setting": "human Daudi cells [2]; dose response, 2-NBDG fluorescence, read-out: EC50 on glucose uptake", "result": "~5", "unit": "nM"}, {"measurement": "glucose uptake (2-NBDG fluorescence)", "setting": "human Daudi cells [3]", "result": "increased glucose uptake to similar levels to that observed in the presence of insulin"}]}, {"compound": "NFVIDEFP [SEQ ID NO: 319]", "values": [{"measurement": "glucose uptake (2-NBDG fluorescence)", "setting": "human Daudi cells [3]", "result": "impact the glucose uptake-increasing activity of the peptide"}]}, {"compound": "NFVILEFA [SEQ ID NO: 300]", "values": [{"measurement": "effect of the C-terminal deletion or alanine substitution (relative to the parent peptide) on glucose uptake", "setting": "human Daudi cells [3]", "result": "had no effect on glucose uptake"}]}, {"compound": "NFVIFEFP [SEQ ID NO: 317]", "values": [{"measurement": "glucose uptake (2-NBDG fluorescence)", "setting": "human Daudi cells [3]", "result": "increased glucose uptake, even more efficiently than SEQ ID NO: 297"}]}, {"compound": "NFVILEAP [SEQ ID NO: 299]", "values": [{"measurement": "effect of the C-terminal deletion or alanine substitution (relative to the parent peptide) on glucose uptake", "setting": "human Daudi cells [3]", "result": "had no effect on glucose uptake"}]}]}
